Patent US9932341B2, “Use of pyrazolopyrimidine derivatives for the treatment of PI3K-delta related disorders” (Incyte Corporation, priority 2013, dated 2018)

Molecular target: PI3Kδ (Homo sapiens (Human), UniProt O00329)
Assay: PI3K Enzyme Assay (Example A2, [γ-33P]ATP filter plate)
Assay type: biochemical
Settings: 1000 μM ATP, 50 μM PIP2
Protocol: PI3K isoforms α, β, δ and γ are purchased from Millipore (Bedford, Mass.).
Inhibitors are first diluted serially in DMSO and added to the plate wells before the addition of other reaction components. The final concentration of DMSO in the assay is 0.5%. The PI3K assays are carried out at room temperature in 20 mM MOPS, pH 6.7, 10 mM MgCl2, 5 mM DTT and CHAPS 0.03%. The reaction mixture is prepared containing 50 μM PIP2, kinase and varying concentration of inhibitors. Reactions are initiated by the addition of ATP containing 2.2 μCi [γ-^33P]ATP to a final concentration of 1000 μM. […] After drying by aspiration and blotting, the plate is air dried in an incubator at 37° C. overnight. Packard TopCount adapter (Millipore) is then attached to the plate followed with addition of 120 μL Microscint 20 scintillation cocktail (Perkin Elmer) in each well. […] IC50 determination is performed by fitting the curve of percent control activity versus the log of the inhibitor concentration using the GraphPad Prism 3.0 software.

Chain of PI3Kδ (O00329 whole entry): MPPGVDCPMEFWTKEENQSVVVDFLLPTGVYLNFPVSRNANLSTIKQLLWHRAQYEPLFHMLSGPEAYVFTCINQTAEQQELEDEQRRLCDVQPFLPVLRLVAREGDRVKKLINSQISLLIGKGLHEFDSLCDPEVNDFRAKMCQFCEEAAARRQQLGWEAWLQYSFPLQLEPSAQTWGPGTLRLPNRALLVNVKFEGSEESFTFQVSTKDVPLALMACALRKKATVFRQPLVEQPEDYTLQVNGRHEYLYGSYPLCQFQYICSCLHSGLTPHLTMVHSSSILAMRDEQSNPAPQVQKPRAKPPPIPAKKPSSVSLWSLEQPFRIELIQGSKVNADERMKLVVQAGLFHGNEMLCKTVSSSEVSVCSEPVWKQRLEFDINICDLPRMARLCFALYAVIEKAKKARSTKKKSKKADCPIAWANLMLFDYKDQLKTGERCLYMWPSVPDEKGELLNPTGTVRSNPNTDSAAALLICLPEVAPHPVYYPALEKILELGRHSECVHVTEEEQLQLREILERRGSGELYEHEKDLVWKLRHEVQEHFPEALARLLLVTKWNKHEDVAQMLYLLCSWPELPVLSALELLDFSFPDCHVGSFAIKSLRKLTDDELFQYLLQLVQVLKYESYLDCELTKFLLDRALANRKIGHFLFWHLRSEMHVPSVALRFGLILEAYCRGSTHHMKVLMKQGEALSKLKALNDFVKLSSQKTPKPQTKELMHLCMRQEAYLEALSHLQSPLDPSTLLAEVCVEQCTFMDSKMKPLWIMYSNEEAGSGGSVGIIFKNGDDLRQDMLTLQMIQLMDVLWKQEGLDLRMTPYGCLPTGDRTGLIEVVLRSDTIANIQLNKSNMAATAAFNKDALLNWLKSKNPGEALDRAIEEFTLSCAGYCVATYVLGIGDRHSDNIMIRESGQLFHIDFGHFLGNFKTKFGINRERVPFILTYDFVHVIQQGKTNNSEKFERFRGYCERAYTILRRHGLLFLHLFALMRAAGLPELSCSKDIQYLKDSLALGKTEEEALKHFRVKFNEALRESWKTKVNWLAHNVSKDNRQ
Chain of PI3Kδ (P27986 whole entry partner): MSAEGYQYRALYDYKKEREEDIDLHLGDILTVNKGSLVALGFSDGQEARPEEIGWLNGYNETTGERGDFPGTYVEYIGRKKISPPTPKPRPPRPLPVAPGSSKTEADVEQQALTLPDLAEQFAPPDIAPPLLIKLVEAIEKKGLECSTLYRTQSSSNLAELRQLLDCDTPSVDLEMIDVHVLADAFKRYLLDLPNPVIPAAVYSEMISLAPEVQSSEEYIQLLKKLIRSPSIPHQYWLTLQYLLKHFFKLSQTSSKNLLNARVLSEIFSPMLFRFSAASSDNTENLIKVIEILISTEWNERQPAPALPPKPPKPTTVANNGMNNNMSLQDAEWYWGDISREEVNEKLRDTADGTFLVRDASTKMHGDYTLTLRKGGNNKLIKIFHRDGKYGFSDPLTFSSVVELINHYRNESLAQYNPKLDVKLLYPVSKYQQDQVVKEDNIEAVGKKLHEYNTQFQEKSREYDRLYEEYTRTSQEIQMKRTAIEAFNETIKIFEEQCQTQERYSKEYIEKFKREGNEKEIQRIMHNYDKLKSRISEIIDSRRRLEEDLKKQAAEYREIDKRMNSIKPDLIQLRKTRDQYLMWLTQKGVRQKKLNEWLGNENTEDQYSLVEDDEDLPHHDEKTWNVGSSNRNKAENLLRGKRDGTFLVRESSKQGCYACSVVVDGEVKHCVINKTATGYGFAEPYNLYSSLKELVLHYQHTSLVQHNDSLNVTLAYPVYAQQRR

Compound: COc1c([C@@H](C)n2nc(C)c3c(N)ncnc32)cc(Cl)c(C#N)c1C1CN(C[C@H](C)O)C1 [Example 361, 4-((R)-1-(4-amino-3-methyl-1H-pyrazolo[3,4-d]pyrimidin-1-yl)ethyl)-6-chloro-2-(1-((S)-2-hydroxypropyl)azetidin-3-yl)-3-methoxybenzonitrile]
- IC50: > 500 nM
